Experimental data from article PMC7288058, “Modulating the Properties of Fe(III) Macrocyclic MRI Contrast Agents by Appending Sulfonate or Hydroxyl Groups” (Molecules, 2020).
Where “and” joins values, the source holds several entries; their conditions need not be identical. Equal values may be shown once.

Columns and labels:
[1] = T1/T2 relaxivity measurements (4.7 T MRI scanner, 9.4 T NMR); settings: pH 7.4, 37 °C; for r1 4.7 T / r2 4.7 T / r1 9.4 T: buffer
Description: The r1 and r2 relaxivity of the three complexes in buffer and HSA on a 4.7-T MRI scanner and 9.4-T NMR spectrometer are shown in Table 2. In buffer, the r1 relaxivity values of Fe(L1)(OH2) and Fe(L3)(OH2) are similar at 2.0 mM^−1∙s^−1 and 2.2. mM^−1∙s^−1, respectively, at 4.7 T. Both complexes have higher relaxivity than Fe(EDTA) (1.4 mM^−1∙s^−1 at 4.7 T) which has a single exchangeable inner-sphere water molecule. The r1 relaxivity value of the […] complex in buffer is two-fold less (1.0 mM^−1∙s^−1) than that of Fe(L1)(OH2) or […] at 4.7 T. In HSA-containing solutions, the r1 relaxivity values of Fe(L1)(OH2), Fe(L2) and Fe(L3)(OH2) change slightly, consistent with weak binding to this blood protein. […] As expected, increasing the field strength from 4.7 T to 9.4 T caused a decrease in the r1 relaxivity value of Gd(DTPA) to 2.5 mM^−1∙s^−1 from 3.1 mM^−1∙s^−1 [19]. […] This peculiar feature of Fe(III) complexes was predicted from simulation of NMRD profiles.
Relaxivity of the complexes was determined at 4.7 T (small animal MRI) and 9.4 T (400 MHz NMR). Both T1 and T2 experiments were performed at 37 °C for the concentration range of 50.0 µM to 0.400 mM Fe(III) complex. The solutions contained 0.100 M NaCl and HEPES buffer (pH 7.4, 20 mM). An inversion recovery True FISP acquisition was used to measure T1 relaxation rate constants. T2 relaxation rates were measured by using multi-echo, Carr–Purcell–Meiboom–Gill spin-echo sequence with a fixed TR of 3000 ms and TE times ranging from 20–1200 ms. The T1 and T2 relaxivity values were calculated by using linear regression fitting of 1/T1 (s^−1) and 1/T2 (s^−1) versus concentration (mM) in Microsoft Excel.

[2] = Kinetic inertness / dissociation monitored by UV-Vis absorbance; type: physicochemical; settings: 100 mM HCl, 37 °C
Description: The complexes have electronic absorbance bands at 325 nm and 330 nm with extinction coefficients ranging from 1570 M^−1∙cm^−1 to 3800 M^−1∙cm^−1 (Figures S16–S21, Table S2, Supplementary Materials). These absorbance peaks were monitored to study the dissociation of the complexes in 100 mM HCl acid solution, or in solutions containing 25 mM hydrogen carbonate and 0.40 mM hydrogen phosphate at 37 °C. […] In acidic solution (100 mM HCl), the dissociation of Fe(L1)(OH2) was estimated as 18.1% over 24 h and 53.6% over 72 h based on absorbance changes. For comparison, the dissociation of the Fe(L2) complex in acidic solution (100 mM HCl) was 7.9% over 48 h, and the dissociation of Fe(L3)(H2O) was 14% over 24 h and 38% over 72 h.
Absorbance of Fe(III) complexes was measured from 200–800 nm over a period of 48 and 72 h. A Peltier temperature controller was used to keep the temperature at 37 °C. The sample solutions contained 0.200 mM Fe(III) complex. Solutions for kinetic inertness experiments contained 25.0 mM NaHCO3, […] Na2HPO4, and 10.0 mM HEPES buffer (pH 7.4). Acidic solutions for the kinetic inertness experiments contained 0.10 M HCl. For each of these experiments, extinction coefficients were determined by using by using the Beer–Lambert law as given in Table S2 (Supplementary Materials).

[3] = Aqueous solubility (observations); type: physicochemical; settings: for aqueous solubility: words
[4] = target: T1, human serum albumin (HSA) (Homo sapiens, UniProt P02768); experiment: Binding to human serum albumin by ultrafiltration / ICP-MS; type: in vitro ADME; settings: 0.4 mM complex, HSA 4.5% (w/v) (0.7 mM), 20 mM HEPES pH 7.4, 100 mM NaCl, 37 °C, 20 min
T1 construct: Albumin from human serum (fatty acid free) was purchased from Sigma-Aldrich; purchased Sigma-Aldrich; host or cells: purified from human serum
Description: Binding of the Fe(III) complexes to human serum albumin (HSA) was studied by using ultrafiltration across a MW 5000 cutoff membrane. The solutions containing HEPES buffer (pH 7.4) and salt NaCl were incubated at 37 °C for 20 min. Solutions contained 0.4 mM Fe(III) complex and 4.5 % (w/v) HSA (0.7 mM). The binding percentages were measured by using ICP-MS to analyze the Fe concentration in the unbound complex solutions after HSA incubation (Table 1). The protein binding for Fe(L3)(OH2) was higher (75%) than for Fe(L1)(OH2) (37%) or Fe(L2) (11%).
The molecular weight of 66,435 Da was used to determine the molar concentrations of HSA. Fe(III) complex (0.400 mM) solutions were incubated with 4.5% (w/v) HSA in 0.100 M NaCl and 20.0 mM HEPES buffer (pH 7.4). All solutions were incubated at 37 °C for 20 min [42]. Aliquots (0.300 mL) were placed in ultra-centrifugal filter units with a 5-kDa membrane and centrifuged at 3500× g for 10 min. The filtrates were used to determine Fe concentration from digested unbound Fe(III) complexes by using ICP-MS.

[5] = pH-potentiometric titrations of the intact Fe(III) complexes; type: physicochemical; settings: potentiometric titration, 25 °C, 0.10 M NaCl, 1–2 mM meglumine
Description: The pH-potentiometric titrations of the intact Fe(III) complexes were studied to determine the equilibrium constants for deprotonation of ligand groups such as the hydroxyl pendants or water ligand. […] For Fe(L1)(OH2) and Fe(L3)(OH2), either an alcohol pendant group or water ligand might ionize but, for Fe(L2), we only consider alcohol pendant groups. […] Ionization of the water ligand at near neutral pH cannot be ruled out, but is not considered to be likely based on prior studies [19]. […] The group that produces this ionization is not likely to be a bound water or hydroxyl group given that the coordination sphere is very similar to that of Fe(L3)(OH2). […] A weak hydrogen bonding interaction to a hydroxyl pendent or bound water might produce such an environment.
All solutions were prepared by using carbonate-free water.
Fe(L1)(OH2): The solution contained 0.527 mM Fe(III) complex added as the chloride salt, 1.00 mM meglumine, 0.100 M NaCl, and 3.72 mM HCl to decrease the pH of the solution to pH 3 in total volume of 20.00 mL. The solution was titrated with a 98.83 mM NaOH solution. Then, 5.00 µL aliquots of the NaOH solution were added over 60 s with an interval of 300 s using a Nexus 3000 High Flow Syringe Pump from Chemyx Inc (Stafford, TX, USA) equipped with a 10-mL Hamilton gastight syringe.
Fe(L2): The solution contained 0.75 mM Fe(III) complex added as the chloride salt, 2.00 mM meglumine, 0.100 M NaCl, and 6.00 mM HCl to decrease the pH of the solution to pH 3 in total volume of 25.00 mL. The solution was titrated with a 94.86 mM NaOH solution. Then, 5.00 µL aliquots of the NaOH solution were added over 60 s with an interval of 300 s using a Nexus 3000 High Flow Syringe Pump from Chemyx Inc (Stafford, TX) equipped with a 10-mL Hamilton gastight syringe.
In all fits of the data, meglumime was used as a third reagent, and the equilibrium equation corresponding to its ionization was added to the model data fit as determined from separate titrations. The titration was completed under Ar(g) at 25 °C. The titrations were monitored from pH 3 to pH 11. Equilibrium constants for all complexes were determined by fitting the data using [sequence] 2013 Version 6.0.1. Speciation diagrams were plotted by utilizing HySS Version 4.0.31.

[6] = 1-octanol/water partition coefficient (log P) by ICP-MS; type: physicochemical; settings: 20 mM HEPES pH 7.4, 100 mM NaCl
Description: To compare the lipophilicity of the complexes, the 1-octanol/water partition coefficients (log P) were determined.
Fe(III) complex solutions (0.500 mM) were prepared in 1.00 mL of H2O with 20.0 mM HEPES buffer (pH 7.4) and 100.0 mM NaCl. 0.500 mL of Fe(III) complex solution and 0.500 mL of 1-octanol was prepared. The mixture was shaken for 24 h, then centrifuged at 13,000 rpm for 1 min. Then, the solution was allowed to stand for 1 h. Iron concentration in the aqueous layer before and after mixing with 1-octanol was determined by ICP-MS. […] (3) logP=log(Co/Cw).

T1 sequence (P02768 25-609): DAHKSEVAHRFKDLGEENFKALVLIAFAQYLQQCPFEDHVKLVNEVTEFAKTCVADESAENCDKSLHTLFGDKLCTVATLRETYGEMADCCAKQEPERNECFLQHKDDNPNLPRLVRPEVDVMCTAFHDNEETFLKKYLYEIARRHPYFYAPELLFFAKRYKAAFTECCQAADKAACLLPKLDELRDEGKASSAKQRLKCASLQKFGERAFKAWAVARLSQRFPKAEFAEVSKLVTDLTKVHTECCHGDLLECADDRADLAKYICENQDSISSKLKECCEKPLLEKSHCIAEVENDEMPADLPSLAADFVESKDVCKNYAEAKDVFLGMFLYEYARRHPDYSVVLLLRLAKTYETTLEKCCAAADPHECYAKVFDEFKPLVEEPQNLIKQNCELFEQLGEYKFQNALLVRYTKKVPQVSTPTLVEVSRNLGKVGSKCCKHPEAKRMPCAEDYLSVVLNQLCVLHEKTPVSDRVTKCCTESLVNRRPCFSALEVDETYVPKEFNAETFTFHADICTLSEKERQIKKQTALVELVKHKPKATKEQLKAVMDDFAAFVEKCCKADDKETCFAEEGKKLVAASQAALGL

| SMILES | r1 4.7 T [1] | r2 4.7 T [1] [mM⁻¹ s⁻¹] | r1 9.4 T [1] [mM⁻¹ s⁻¹] | r1 in HSA 4.7 T [1] [mM⁻¹ s⁻¹] | r2 in HSA 4.7 T [1] [mM⁻¹ s⁻¹] | dissociation in acidic solution ([2]; over 24 h, estimated from absorbance changes) [%] | dissociation in acidic solution ([2]; over 72 h, estimated from absorbance changes) [%] | aqueous solubility [3] | HSA Binding (%) [4] | Log K1 (pKa2) [5] | Log K2 (pKa1) [5] | Log P [6] | dissociation in acidic solution ([2]; over 48 h) [%] | solubility ([3]; pH 6–7, concentration needed for 17O-NMR) [mM] |
| --- | --- | --- | --- | --- | --- | --- | --- | --- | --- | --- | --- | --- | --- | --- |
| C[C@H]([O-])CN1CCN(CCCS(=O)(=O)[O-])CCN(C[C@H](C)O)CC1.O.[Fe+3] [Fe(L1)(OH2)] | 2.0 mM⁻¹ s⁻¹ and 2.0 ± 0.19 mM⁻¹ s⁻¹ | 6.1 ± 0.77 | 2.0 ± 0.2 | 2.5 ± 0.63 | 5.5 ± 0.98 | 18.1 | 53.6 | excellent aqueous solubility | 37% and 36.8 ± 0.2% | 7.55 ± 0.08 | 3.39 ± 0.17 | −1.67 |  |  |
| C[C@H]([O-])CN1CCN(C[C@H](C)O)CCN(C[C@H](C)O)CC1.[Fe+3] [Fe(L2)] | 0.97 ± 0.12 mM⁻¹ s⁻¹ | 1.8 ± 0.47 | 1.4 ± 0.08 | 1.2 ± 0.22 | 2.3 ± 1.1 |  |  | moderate solubility | 11% and 11.2 ± 2.8% | 11.78 ± 0.11 | 6.57 ± 0.05 | −1.60 ± 0.1 | 7.9 | < 10 |
